This note sets out measurements from US9023789B2, “Amylin analogs and pharmaceutical compositions thereof” (Novo Nordisk A/S, priority 2012, dated 2015).

By EC50 is commonly meant the concentration needed to bring the measured effect to its halfway point. The term IC50 denotes the concentration that inhibits the measured activity by half.

The target of data set [1] is T1, human amylin 3(a) receptor (human calcitonin receptor + RAMP-3) in BHK570 cells (Homo sapiens, UniProt O60896+P30988).
T1 construct: expressed in transfected cells
As to the kind of experiment: ASSAY (II)a functional assay, human amylin receptor (CRE luciferase). The format is cell-based. The note with it: for EC50: human amylin receptor functional potency, assay (II), read-out: hAmylin-R funct. EC50. In outline: (§1)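 Read-out: CRE-driven luciferase luminescence, single photon counting, after 30 min at room temperature with LucLite. BHK cells expressed calcitonin receptor alone or with RAMP-3 (amylin 3(a)). Cells were stimulated 3 h at 37° C in DMEM, 10% FBS, 10 mM Hepes, pH 7.4.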

The target in data set [2] is T2, human calcitonin (a) receptor in BHK570 cells (Homo sapiens, UniProt P30988).
T2 construct: expressed in transfected cells
T2 sequence (P30988 25-474): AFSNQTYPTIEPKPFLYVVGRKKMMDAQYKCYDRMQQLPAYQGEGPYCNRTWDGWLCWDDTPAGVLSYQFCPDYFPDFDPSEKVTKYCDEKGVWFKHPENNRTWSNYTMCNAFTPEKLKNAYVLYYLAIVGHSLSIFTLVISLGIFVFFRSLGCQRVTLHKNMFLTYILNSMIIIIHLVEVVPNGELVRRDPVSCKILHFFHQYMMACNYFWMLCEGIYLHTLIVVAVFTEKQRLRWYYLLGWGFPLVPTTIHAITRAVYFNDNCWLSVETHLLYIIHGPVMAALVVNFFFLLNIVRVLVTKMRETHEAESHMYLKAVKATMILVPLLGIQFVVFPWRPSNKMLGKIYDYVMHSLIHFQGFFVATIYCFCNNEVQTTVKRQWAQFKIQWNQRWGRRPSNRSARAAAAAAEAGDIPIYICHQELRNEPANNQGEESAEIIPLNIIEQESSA
As to the kind of experiment: ASSAY (II)a functional assay, human calcitonin receptor (CRE luciferase). Particulars: read-out: hCTR funct. EC50. Type of data set: cell-based. The essentials: as §1

Data set [3] can be described thus: ASSAY (IV) determination of solubility. The format is physicochemical. In outline:
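Solubility measured by UPLC of supernatant after centrifugation, following 18 h at room temperature. Peptide ([…] in water) was diluted 1:1 into 100 mM glycylglycine (pH 3.0, 4.0, 5.0) or bistrispropane (pH 6.0-8.0).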

For data set [4], the target named is T3, human amylin receptor (membranes from Amylin 3(a)/CRE-luc cells) (Homo sapiens, UniProt O60896+P30988).
T3 construct: expressed in transfected cells
T3 sequence (P30988 25-474): T2 sequence (P30988 25-474)
T3 sequence (O60896 24-148 partner): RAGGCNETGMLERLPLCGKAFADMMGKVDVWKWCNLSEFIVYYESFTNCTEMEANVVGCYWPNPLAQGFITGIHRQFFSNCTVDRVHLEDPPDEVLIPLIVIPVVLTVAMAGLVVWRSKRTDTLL
As to the kind of experiment: ASSAY (V) binding to the human amylin receptor (SPA, 125I-rat amylin).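 As to all read-outs here: competition binding of cell membranes (35 ng/µL) mixed with SPA beads in 384-well plates at 40 µL total volume, read by scintillation counting.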 Particulars: for IC50: Table 4, read-out: hAmylin-R bind IC50.

For data set [5], the target named is T4, human calcitonin receptor (Homo sapiens, UniProt P30988).
T4 construct: expressed in transfected cells
T4 sequence (P30988 25-474): T2 sequence (P30988 25-474)
Nature of the data set: ASSAY (VII) binding to the human calcitonin receptor (SPA, 125I-Calcitonin).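 Also: cell membranes (35 ng/µL) combined with SPA beads in 40 µL of pH 7.4 Hepes buffer, 384-well format, signal counted on a TopCounter instrument.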 Particulars: read-out: hCTR bind IC50.

A further data set addresses T5, rat calcitonin receptor (Rattus norvegicus, UniProt P32214).
T5 construct: expressed in transfected cells; host or cells: BHK tk'ts 13 (transient, FuGENE 6), membranes
T5 sequence (P32214 25-479 isoform P32214-2 limits assumed): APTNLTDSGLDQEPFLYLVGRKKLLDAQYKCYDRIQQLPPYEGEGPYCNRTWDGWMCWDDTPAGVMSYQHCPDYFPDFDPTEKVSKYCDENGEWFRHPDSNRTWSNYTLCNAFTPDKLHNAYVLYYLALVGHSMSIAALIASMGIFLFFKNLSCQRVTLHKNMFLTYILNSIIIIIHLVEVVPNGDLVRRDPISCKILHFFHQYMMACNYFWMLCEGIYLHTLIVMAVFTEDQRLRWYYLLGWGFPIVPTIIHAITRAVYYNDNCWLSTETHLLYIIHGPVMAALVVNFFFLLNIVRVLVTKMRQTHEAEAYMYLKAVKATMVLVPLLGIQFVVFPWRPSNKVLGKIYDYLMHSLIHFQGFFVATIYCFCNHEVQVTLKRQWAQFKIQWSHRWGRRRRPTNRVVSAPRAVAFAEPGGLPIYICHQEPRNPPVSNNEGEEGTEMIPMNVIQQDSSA
Nature of the data set: ASSAY (VIII) binding to the rat calcitonin receptor. The note with it: Table 7, read-out: rCTR bind IC50. In outline:
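BHK tk′ts 13 cells, transient rat calcitonin receptor transfection; DMEM + 10% FBS; harvest ~48 h post-transfection; membrane prep.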

[6] abbreviates: hCTR funct. EC50 divided by hAmylin-R funct. EC50.
Setting [7] is: hCTR funct. EC50 over hAmylin-R funct. EC50.
Setting [8] is: human functional selectivity: hCTR funct. EC50 / hAmylin-R funct. EC50.
The mark [9] stands for this setting: bistrispropane buffer, pH 6.5, read-out: Solubility pH 6.5 Concentration.
Where [10] appears, read: bistrispropane buffer, pH 7.5, read-out: Solubility pH 7.5 Concentration.
The mark [11] stands for this setting: bistrispropane buffer, pH 6.0, read-out: Solubility pH 6.0 Concentration.
Setting [12] is: bistrispropane buffer, pH 7.0, read-out: Solubility pH 7.0 Concentration.
Where [13] appears, read: bistrispropane buffer, pH 8.0, read-out: Solubility pH 8.0 Concentration.
Setting [14] is: glycylglycine buffer, pH 3.0, read-out: Solubility pH 3.0 Concentration.
Setting [15] is: glycylglycine buffer, pH 4.0, read-out: Solubility pH 4.0 Concentration.
[16] abbreviates: glycylglycine buffer, pH 5.0, read-out: Solubility pH 5.0 Concentration.
Where [17] appears, read: Table 5, selectivity, hCTR bind IC50 / hAmylin-R bind IC50.
[18] abbreviates: Table 5a, selectivity, hCTR bind IC50 / hAmylin-R bind IC50.
The mark [19] stands for this setting: Table 5b, selectivity, hCTR bind IC50 / hAmylin-R bind IC50.
Setting [20] is: Table 5c, selectivity, hCTR bind IC50 / hAmylin-R bind IC50.
[21] abbreviates: Table 7, human binding selectivity, included for comparison.
Where [22] appears, read: Table 7a (preferred compounds), human binding selectivity, included for comparison.
Where [23] appears, read: ratio of human calcitonin receptor binding IC50 to human amylin receptor binding IC50.

≈ marks a conversion by molar mass, not a printed value. Like-named read-outs stand apart in the source and are kept apart here. Numbered stars: 1 amine (or outer) side, 2 acyl side, 3 side chain; on linkers, the order of the positions; unused ones are H or OH. Bridge positions count the residues as written; N and C are the ends. Side chains are listed from the residue outwards. Peptide text beside a SMILES is read from it. * marks the point of attachment. C20 diacid = O=C(O)CCCCCCCCCCCCCCCCCCC(=O)*; γGlu = O=C(O)[C@H](CCC(=O)[*:2])N[*:1]; AEEA = NCCOCCOCC(=O)O

In the case of `CC[C@H](C)[C@H](NC(=O)[C@H](C)NC(=O)CNC(=O)[C@H](Cc1ccccc1)NC(=O)[C@H](CC(N)=O)NC(=O)[C@@H]1CCCN1C(=O)[C@H](CO)NC(=O)[C@H](CO)NC(=O)[C@H](Cc1c[nH]cn1)NC(=O)[C@H](CCCNC(=N)N)NC(=O)[C@H](CC(C)C)NC(=O)[C@H](Cc1ccccc1)NC(=O)[C@H](Cc1c[nH]cn1)NC(=O)[C@H](C)NC(=O)[C@H](CC(C)C)NC(=O)[C@H](CCCNC(=N)N)NC(=O)[C@H](CCC(N)=O)NC(=O)[C@@H](NC(=O)[C@H](C)NC(=O)[C@@H]1CSSC[C@H](NC(=O)[C@@H](N)CCCCNC(=O)CC[C@H](NC(=O)CCCCCCCCCCCCCCCCCCC(=O)O)C(=O)O)C(=O)N[C@@H](CC(N)=O)C(=O)N[C@@H]([C@@H](C)O)C(=O)N[C@@H](C)C(=O)N[C@@H]([C@@H](C)O)C(=O)N1)[C@@H](C)O)C(=O)N1CCC[C@H]1C(=O)N[C@@H](CO)C(=O)N[C@@H](CO)C(=O)N[C@H](C(=O)N[C@@H](CC(N)=O)C(=O)N[C@H](C(=O)NCC(=O)N[C@@H](CO)C(=O)N[C@@H](CC(N)=O)C(=O)N[C@H](C(=O)N[C@@H](Cc1ccc(O)cc1)C(N)=O)[C@@H](C)O)C(C)C)[C@@H](C)O` [Example 70] (H-K([γGlu-C20 diacid])CNTATCATQRLAHFLRHSSPNFGAIPSSTNVGSNTY-NH2; disulfide 2-7; N-terminus assumed), the “Ratio hCT/hAmylin funct.” value in data set [1] (setting [6]), in data set [1] (setting [7]) and in data set [1] (setting [8]) was 17.9 each time. Moreover, the EC50 is 0.04 nM in data set [1] and 0.715 nM in data set [2]. Also, the solubility at 18 h in data set [3] (setting [9]), in data set [3] (setting [10]), in data set [3] (setting [11]), in data set [3] (setting [12]), in data set [3] (setting [13]) and in data set [3] (setting [14]) was not below 200 µM in each case. For the same compound, the solubility at 18 h in data set [3] (setting [15]) and in data set [3] (setting [16]) was not below 200 µM in each case. Also, the IC50 in data set [4] is 0.169 nM; in data set [5] it was 10.3 nM; on rat calcitonin receptor it was 34.2 nM. The “Ratio hCT/hAmylin binding” value in data set [4] (setting [17]), in data set [4] (setting [18]), in data set [4] (setting [19]), in data set [4] (setting [20]), in data set [4] (setting [21]) and in data set [4] (setting [22]) was 60.8 each time. In addition, in data set [4] (setting [23]), the “Ratio hCT/hAmylin binding” value was 60.8.

In the case of `CC[C@H](C)[C@H](NC(=O)[C@H](C)NC(=O)CNC(=O)[C@H](Cc1ccccc1)NC(=O)[C@H](CC(N)=O)NC(=O)[C@@H]1CCCN1C(=O)[C@H](CO)NC(=O)[C@H](CO)NC(=O)[C@H](Cc1c[nH]cn1)NC(=O)[C@H](CCCNC(=N)N)NC(=O)[C@H](CC(C)C)NC(=O)[C@H](Cc1ccccc1)NC(=O)[C@H](C)NC(=O)[C@H](C)NC(=O)[C@H](CC(C)C)NC(=O)[C@H](CCCNC(=N)N)NC(=O)[C@H](CCC(N)=O)NC(=O)[C@@H](NC(=O)[C@H](C)NC(=O)[C@@H]1CSSC[C@H](NC(=O)[C@@H](N)CCCCNC(=O)COCCOCCNC(=O)CC[C@H](NC(=O)CCCCCCCCCCCCCCCCCCC(=O)O)C(=O)O)C(=O)N[C@@H](CC(N)=O)C(=O)N[C@@H]([C@@H](C)O)C(=O)N[C@@H](C)C(=O)N[C@@H]([C@@H](C)O)C(=O)N1)[C@@H](C)O)C(=O)N1CCC[C@H]1C(=O)N[C@@H](CO)C(=O)N[C@@H](CO)C(=O)N[C@H](C(=O)N1CCC[C@H]1C(=O)N[C@H](C(=O)NCC(=O)N[C@@H](CO)C(=O)N[C@@H](CC(N)=O)C(=O)N[C@H](C(=O)N[C@@H](Cc1ccc(O)cc1)C(N)=O)[C@@H](C)O)C(C)C)[C@@H](C)O` [Example 72] (H-K([AEEA-γGlu-C20 diacid])CNTATCATQRLAAFLRHSSPNFGAIPSSTPVGSNTY-NH2; disulfide 2-7 (inferred); N-terminus assumed), the “Ratio hCT/hAmylin funct.” value in data set [1] (setting [6]), in data set [1] (setting [7]) and in data set [1] (setting [8]) was 44.9 in each case. In addition, the figures for the EC50 in data set [1] and in data set [2] were 0.106 nM and 4.76 nM, respectively. Moreover, the solubility at 18 h was not below 200 µM in data set [3] (setting [9]); not below 200 µM in data set [3] (setting [10]); not below 200 µM in data set [3] (setting [11]); not below 200 µM in data set [3] (setting [12]); 194 µM (≈ 866 µg/mL) in data set [3] (setting [13]); not below 200 µM in data set [3] (setting [14]). Also, the solubility at 18 h in data set [3] (setting [15]) and in data set [3] (setting [16]) was not below 200 µM throughout. Further, the concentration for half-maximal inhibition (IC50) in data set [4] amounted to 0.172 nM; in data set [5], 42.4 nM; at rat calcitonin receptor it was 221 nM. Also, the “Ratio hCT/hAmylin binding” value in data set [4] (setting [17]), in data set [4] (setting [18]), in data set [4] (setting [19]), in data set [4] (setting [20]), in data set [4] (setting [21]) and in data set [4] (setting [22]) was 246.6 in each case. The “Ratio hCT/hAmylin binding” value in data set [4] (setting [23]) is given as 246.6.
